Experimental data from US20150105252A1, “SUBSTITUTED PYRAZOLES AS HERBICIDES” (E I DU PONT DE NEMOURS AND COMPANY, priority 2013, published 2015).

Tests used:
ducksalad [1] = assay: Test B flood; type: in vivo, Heteranthera limosa; conditions: 250 g ai/ha, visual rating on 0 to 100 scale (0 no effect, 100 complete control), 13 to 15 days
Outline: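 Greenhouse assay lasting 13 to 15 days. Treatment was into water flooding pots 3 cm deep, at the 2-leaf stage, with that level sustained afterwards. Scores compare treated with control plants visually, 100 denoting complete control and 0 no effect; a dash marks no test result.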

ryegrass, Italian = assay: Test C postemergence; type: in vivo, Lolium multiflorum; conditions: for Plant response rating (scale of 0 to 100 where 0 is no effect and 100 is complete control), Ryegrass, Italian: 31 g ai/ha, visually evaluated after 13 to 15 days; for Ryegrass, Italian plant response rating / Plant response rating, Ryegrass, Italian: postemergence; for Ryegrass, Italian plant response rating: 62 g ai/ha, scale 0 to 100
Excerpt: Seeds of plant species selected from blackgrass (Alopecurus myosuroides), ryegrass, Italian (Italian ryegrass, Lolium multiflorum), wheat (winter wheat, Triticum aestivum), galium (catchweed bedstraw, Galium aparine), corn (Zea mays), crabgrass, large (large crabgrass, Digitaria sanguinalis), foxtail, giant (giant foxtail, Setaria faberii), johnsongrass (Sorghum halepense), lambsquarters (Chenopodium album), morningglory (Ipomoea coccinea), nutsedge, yellow (yellow nutsedge, Cyperus esculentus), pigweed (redroot pigweed, Amaranthus retroflexus), ragweed (common ragweed, Ambrosia elation), soybean (Glycine max), barnyardgrass (Echinochloa crus-galli), oilseed rape (Brassica napus), waterhemp (common waterhemp, Amaranthus rudis), oat, wild (wild oat, Avena fatua), kochia (Kochia scoparia), Surinam grass (Brachiaria decumbens), foxtail, green (green foxtail, Setaria viridis), goosegrass (Eleusine indica), bromegrass, downy (downy bromegrass, Bromus tectorum), nightshade (eastern black nightshade, Solanum ptycanthum), cocklebur (common cocklebur, Xanthium strumarium), cupgrass, woolly (woolly cupgrass, Eriochloa villosa), bermudagrass (Cynodon dactylon), sunflower, (common oilseed sunflower, Helianthus annuus), Russian thistle (Salsola kali), and velvetleaf (Abutilon theophrasti) were planted into a blend of loam soil and sand and treated preemergence with test chemicals formulated in a non-phytotoxic solvent mixture which included a surfactant.
At the same time, plants selected from these crop and weed species and also chickweed (common chickweed, Stellaria media), canarygrass (littleseed canarygrass, Phalaris minor), and deadnettle (henbit deadnettle, Lamium amplexicaule), were planted in pots containing Redi-Earth® planting medium (Scotts Company, 14111 Scottslawn Road, Marysville, Ohio 43041) comprising spaghnum peat moss, vermiculite, wetting agent and starter nutrients and treated with postemergence applications of test chemicals formulated in the same manner. Plants ranged in height from 2 to 18 cm (1- to 4-leaf stage) for postemergence treatments. Treated plants and controls were maintained in a greenhouse for 13 to 15 days, after which time all species were compared to controls and visually evaluated. Plant response ratings, summarized in Table C, are based on a scale of 0 to 100 where 0 is no effect and 100 is complete control. A dash (-) response means no test result.

rice = assay: Test C flooded paddy test; type: in vivo, Oryza sativa; conditions: Flood
Outline: (§1)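 Flooded 3 cm over soil; compound into paddy water; depth kept constant. Greenhouse 13–15 d.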

sedge, umbrella = assay: Test C flooded paddy test; type: in vivo, Cyperus difformis; conditions: Flood
Outline: as §1

ducksalad [2] = assay: Test C flooded paddy test; type: in vivo, Heteranthera limosa; conditions: Flood
Outline: as §1

barnyardgrass = assay: Test C flooded paddy test; type: in vivo, Echinochloa crus-galli; conditions: Flood
Outline: as §1

[3] = 250 g ai/ha, scale 0 to 100 (0 no effect, 100 complete control)
[4] = 125 g ai/ha, scale 0 to 100, 0 no effect, 100 complete control
[5] = 31 g ai/ha, scale 0 to 100 (0 no effect, 100 complete control)
[6] = 62 g ai/ha, scale 0 to 100 (0 no effect, 100 complete control)
[7] = 125 g ai/ha, scale 0 to 100 (0 no effect, 100 complete control)

Compound | Plant response rating, Ducksalad (ducksalad [1]) | Plant response rating (scale of 0 to 100 where 0 is no effect and 100 is complete control), Ryegrass, Italian (ryegrass, Italian; Postemergence) | Ryegrass, Italian plant response rating (ryegrass, Italian) | Plant response rating, Ryegrass, Italian (ryegrass, Italian; [3]) | Plant response rating, Ryegrass, Italian (ryegrass, Italian; [4]) | Plant response rating, Rice (rice; [5]) | Plant response rating, Rice (rice; [6]) | Plant response rating, Rice (rice; 125 g ai/ha, scale 0 to 100) | Plant response rating, Rice (rice; 250 g ai/ha, scale 0 to 100) | Plant response rating, Sedge, Umbrella (sedge, umbrella; [5]) | Plant response rating, Sedge, Umbrella (sedge, umbrella; [6]) | Plant response rating, Sedge, Umbrella (sedge, umbrella; 125 g ai/ha, scale 0 to 100) | Plant response rating, Sedge, Umbrella (sedge, umbrella; 250 g ai/ha, scale 0 to 100) | Plant response rating, Ducksalad (ducksalad [2]; [5]) | Plant response rating, Ducksalad (ducksalad [2]; [6]) | Plant response rating, Ducksalad (ducksalad [2]; 125 g ai/ha, scale 0 to 100) | Plant response rating, Ducksalad (ducksalad [2]; 250 g ai/ha, scale 0 to 100) | Plant response rating, Barnyardgrass (barnyardgrass; [5]) | Plant response rating, Barnyardgrass (barnyardgrass; [6]) | Plant response rating, Barnyardgrass (barnyardgrass; 250 g ai/ha, scale 0 to 100) | other results
CCOc1cc(C(=O)NCC(F)(F)F)nn1Cc1ccnc(OC(F)F)c1 [Compound 128] | 95 | 5 | 10 | 30 | 15 | 0 | 0 | 0 | 0 | 30 | 50 | 75 | 85 | 40 | 75 | 80 | 90 | 0 | 0 | – | Plant response rating, Barnyardgrass (barnyardgrass; 125 g ai/ha, scale 0 to 100): 35
CCCc1cc(C(=O)NC2CC2)nn1Cc1ccnc(OC(F)F)c1 [Compound 205] | 100 | – | – | 5 | 5 | – | 0 | – | 0 | – | 75 | – | 100 | – | 75 | – | 100 | – | 0 | 35 | Plant response rating, Rice (rice; [7]): 0; Plant response rating, Rice (rice; 500 g ai/ha, scale 0 to 100): 35; Plant response rating, Sedge, Umbrella (sedge, umbrella; [7]): 95; Plant response rating, Sedge, Umbrella (sedge, umbrella; 500 g ai/ha, scale 0 to 100): 100; Plant response rating, Ducksalad (ducksalad [2]; [7]): 90; Plant response rating, Ducksalad (ducksalad [2]; 500 g ai/ha, scale 0 to 100): 100; Plant response rating, Barnyardgrass (barnyardgrass; [7]): 25; Plant response rating, Barnyardgrass (barnyardgrass; 500 g ai/ha, scale 0 to 100): 60
CCONC(=O)c1cc(CC)n(Cc2ccnc(C(F)(F)F)c2)n1 [Compound 77] | 80 | 5 | 5 | – | 5 | 0 | 0 | 0 | 0 | 0 | 50 | 60 | 75 | 20 | 40 | 70 | 75 | 0 | 0 | 20 | Plant response rating (scale of 0 to 100), Ryegrass, Italian (ryegrass, Italian; Postemergence, 16 g ai/ha): 0; Plant response rating, Barnyardgrass (barnyardgrass; 125 g ai/ha, scale 0 to 100): 20
CCCNC(=O)c1cc(CC)n(Cc2nc(C(F)(F)F)nn2C)n1 [Compound 109] | 0 | 5 | 5 | 10 | 5 | 0 | 0 | 20 | 35 | 30 | 60 | 75 | 85 | 30 | 40 | 75 | 85 | 0 | 0 | 40 | Plant response rating, Barnyardgrass (barnyardgrass; 125 g ai/ha, scale 0 to 100): 35
CCCNC(=O)c1cc(CCF)n(Cc2ccnc(C(F)(F)F)c2)n1 [Compound 177] | 95 | – | – | 5 | 5 | 0 | 0 | – | 0 | 50 | 75 | – | 90 | 0 | 50 | – | 85 | 0 | 0 | 0 | Plant response rating, Rice (rice; [7]): 0; Plant response rating, Sedge, Umbrella (sedge, umbrella; [7]): 85; Plant response rating, Ducksalad (ducksalad [2]; [7]): 75; Plant response rating, Barnyardgrass (barnyardgrass; [7]): 0
CCCc1cc(C(=O)NOC(C)C)nn1Cc1cc(C(F)(F)F)nn1C [Compound 203] | 95 | – | – | – | – | 0 | 0 | – | 0 | 40 | 40 | – | 85 | 0 | 0 | – | 80 | 0 | 0 | 0 | Plant response rating, Rice (rice; [7]): 0; Plant response rating, Sedge, Umbrella (sedge, umbrella; [7]): 70; Plant response rating, Ducksalad (ducksalad [2]; [7]): 20; Plant response rating, Barnyardgrass (barnyardgrass; [7]): 0
